Test results as given in ChEMBL document CHEMBL2010677, “Anti-inflammatory and PPAR transactivational effects of secondary metabolites from the roots of Asarum sieboldii” (Bioorg Med Chem Lett, 2012).

Columns and labels:
[1] = molecular target: T1, Peroxisome proliferator-activated receptor delta (Homo sapiens, UniProt Q03181); experiment: Transactivation of GAL4-fused PPARbeta LBD expressed in HepG2 cells after 20 hrs by luminescence assay; format: cell-based
T1 sequence (Q03181 whole entry): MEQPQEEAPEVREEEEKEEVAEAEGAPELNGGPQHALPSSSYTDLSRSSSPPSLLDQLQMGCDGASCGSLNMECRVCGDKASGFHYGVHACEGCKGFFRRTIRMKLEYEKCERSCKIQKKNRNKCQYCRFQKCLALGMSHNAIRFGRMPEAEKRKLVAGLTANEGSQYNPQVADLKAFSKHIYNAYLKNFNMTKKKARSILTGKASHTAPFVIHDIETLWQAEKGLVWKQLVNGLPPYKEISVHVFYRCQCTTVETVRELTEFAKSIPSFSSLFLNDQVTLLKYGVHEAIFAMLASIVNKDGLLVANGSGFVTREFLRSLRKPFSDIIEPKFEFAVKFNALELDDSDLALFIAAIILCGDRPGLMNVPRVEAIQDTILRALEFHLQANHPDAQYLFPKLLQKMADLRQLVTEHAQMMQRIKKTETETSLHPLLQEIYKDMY

[2] = (§1) Transactivation of PPAR expressed in HepG2 cells after 20 hrs by luminescence assay; format: cell-based; conditions: HepG2, 20 h
[3] = molecular target: T2, Peroxisome proliferator-activated receptor alpha (Homo sapiens, UniProt Q07869); experiment: (§2) Transactivation of GAL4-fused PPARalpha LBD expressed in HepG2 cells after 20 hrs by luminescence assay; format: cell-based
T2 sequence (Q07869 whole entry): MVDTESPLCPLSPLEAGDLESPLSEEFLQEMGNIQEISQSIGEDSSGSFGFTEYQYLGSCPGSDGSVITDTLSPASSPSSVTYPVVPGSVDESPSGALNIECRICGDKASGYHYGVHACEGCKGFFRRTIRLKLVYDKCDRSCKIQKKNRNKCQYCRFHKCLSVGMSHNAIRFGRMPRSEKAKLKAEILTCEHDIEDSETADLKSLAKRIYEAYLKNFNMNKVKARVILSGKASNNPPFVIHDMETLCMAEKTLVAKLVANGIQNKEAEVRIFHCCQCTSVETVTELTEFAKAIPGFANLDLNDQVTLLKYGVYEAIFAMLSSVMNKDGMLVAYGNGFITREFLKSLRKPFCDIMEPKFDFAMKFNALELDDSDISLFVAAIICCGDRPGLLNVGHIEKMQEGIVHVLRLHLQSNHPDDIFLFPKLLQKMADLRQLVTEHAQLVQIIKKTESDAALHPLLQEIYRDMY

[4] = molecular target: T3, Peroxisome proliferator-activated receptor gamma (Homo sapiens, UniProt P37231); experiment: Transactivation of GAL4-fused PPARgamma LBD expressed in HepG2 cells after 20 hrs by luminescence assay; format: cell-based
T3 sequence (P37231 whole entry): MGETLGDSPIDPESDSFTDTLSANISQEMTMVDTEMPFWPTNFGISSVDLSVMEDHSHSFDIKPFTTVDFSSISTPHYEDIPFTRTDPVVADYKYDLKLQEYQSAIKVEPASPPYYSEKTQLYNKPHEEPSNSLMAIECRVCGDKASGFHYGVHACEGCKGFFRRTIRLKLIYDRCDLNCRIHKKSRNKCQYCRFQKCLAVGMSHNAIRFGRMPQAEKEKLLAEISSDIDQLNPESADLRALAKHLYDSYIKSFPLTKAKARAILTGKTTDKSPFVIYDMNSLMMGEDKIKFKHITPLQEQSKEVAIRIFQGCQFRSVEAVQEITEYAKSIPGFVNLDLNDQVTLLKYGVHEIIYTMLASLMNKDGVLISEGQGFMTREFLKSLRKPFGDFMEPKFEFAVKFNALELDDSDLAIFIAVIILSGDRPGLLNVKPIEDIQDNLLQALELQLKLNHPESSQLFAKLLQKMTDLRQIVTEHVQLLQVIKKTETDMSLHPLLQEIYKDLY

[5] = test system: HepG2; experiment: Cytotoxicity against human HepG2 cells by MTT assay; format: cell-based
[6] = molecular target: T4, Peroxisome proliferator-activated receptor alpha (Homo sapiens) (UniProt Q07869); experiment: as §2; format: cell-based
T4 sequence (whole entry): T2 sequence (Q07869 whole entry)

[7] = Inhibition of TNFalpha-induced NFkappaB transcriptional activity in human HepG2 cells pretreated for 1 hr before TNFalpha challenge by luciferase reporter gene analysis
[8] = test system: HepG2; experiment: Inhibition of NFkappaB-mediated iNOS mRNA expression in human TNFalpha-stimulated human HepG2 cells pretreated for 1 hr before TNFalpha challenge measured after 6 hrs by RT-PCR analysis; format: cell-based
[9] = test system: HepG2; experiment: Inhibition of NFkappaB-mediated COX2 mRNA expression in human TNFalpha-stimulated human HepG2 cells by RT-PCR analysis; format: cell-based
[10] = test system: HepG2; experiment: as §1; format: cell-based

Work on `CCCc1c(OCCCOc2ccc(OCC(=O)O)cc2)ccc(C(C)=O)c1O` yielded an EC50 [1] of 0.64 µM.
Compound `COc1cc([C@H]2OC[C@H]3[C@@H]2CO[C@H]3c2ccc3c(c2)OCO3)cc(OC)c1O` has an EC50 [2] of 6.2 µM, an EC50 [3] of over 60 µM and an EC50 [4] of 22.6 µM. For the same compound, the EC50 [1] was 47.6 µM and the Activity [5] was “Non-toxic”.
For `CC(C)(O)C1=C[C@@H](O)[C@@](C)(O)CC1`, the EC50 [2] was 4.3 µM, the Activity [6] was “Dose-dependent effect” and the EC50 [3] was 19.5 µM. The EC50 [4] was 21.7 µM, the EC50 [1] was 48.5 µM and the Activity [5] was “Non-toxic”.
With `COc1ccc([C@@H](O)[C@H](O)CO)cc1OC` the EC50 [2] was 20.3 µM, the Activity [6] was “Dose-dependent effect” and the EC50 [3] was 15.7 µM. For the same compound, the EC50 [4] was 19.3 µM, the EC50 [1] was 22.6 µM and the Activity [5] was “Non-toxic”.
In the case of `C/C=C\CC/C=C/C=C/C(=O)NCC(C)C`, the EC50 [2] is reported as 2 µM, the Activity [6] is reported as “Dose-dependent effect” and the EC50 [3] is reported as 4 µM. The EC50 [4] was 3.6 µM, the EC50 [1] was 4.9 µM and the Activity [5] was “Non-toxic”.
For `CC=C/C=C\CC/C=C/C=C/C(=O)NCC(C)C`, the IC50 [7] was 6.4 µM, the inhibition [8] was “Dose-dependent effect” and the inhibition [9] was “Dose-dependent effect”. The EC50 [2] was 58.6 µM, the EC50 [3] was 46.1 µM and the EC50 [4] was 52.3 µM. For the same compound, the EC50 [1] was 51.1 µM and the Activity [5] was “Non-toxic”.
For `CC1=CC(=O)C2C(C1=O)C2(C)C` (racemic), the EC50 [2] was over 60 µM and the Activity [5] was “Non-toxic”.
With `c1cc2c(cc1[C@H]1OC[C@H]3[C@@H]1CO[C@H]3c1ccc3c(c1)OCO3)OCO2` [ASARININ] the IC50 [7] was 7.1 µM, the inhibition [8] was “Dose-dependent effect” and the inhibition [9] was “Dose-dependent effect”. For the same compound, the EC50 [2] was over 60 µM and the Activity [5] was “Non-toxic”.
`CC(C)(Oc1ccc(CCNC(=O)c2ccc(Cl)cc2)cc1)C(=O)O` [BEZAFIBRATE] showed an EC50 [2] of 1.05 µM.
Work on `CC(C)(Oc1ccc(C2CC2(Cl)Cl)cc1)C(=O)O` (stereo not drawn) [CIPROFIBRATE] yielded an EC50 [3] of 0.9 µM.
With `C=CCc1ccc(OC)c(OC)c1` [METHYLEUGENOL] the EC50 [2] was 28 µM, the EC50 [3] was 46.5 µM and the EC50 [4] was 40 µM. For the same compound, the EC50 [1] was 50.6 µM and the Activity [5] was “Non-toxic”.
In the case of `COc1cc([C@H]2OC[C@H]3[C@@H]2CO[C@H]3c2ccc(O)c(OC)c2)ccc1O` [PINORESINOL], the EC50 [2] is reported as 10.3 µM, the Activity [10] is reported as “Dose-dependent effect” and the EC50 [3] is reported as over 60 µM. The EC50 [4] was 58.6 µM, the EC50 [1] was 49.5 µM and the Activity [5] was “Non-toxic”.
With `COc1cc([C@@H]2OC[C@@H]3[C@H]2CO[C@H]3c2ccc3c(c2)OCO3)ccc1O` [PIPERITOL] the EC50 [2] was 20.9 µM, the EC50 [3] was 53.2 µM and the EC50 [4] was 18.9 µM. For the same compound, the EC50 [1] was 33.9 µM and the Activity [5] was “Non-toxic”.
`COc1cc([C@H]2OC[C@@H]3[C@H]2CO[C@H]3c2ccc3c(c2)OCO3)ccc1O` [PLUVIATILOL] gave an EC50 [2] of 1.7 µM, an EC50 [3] of over 60 µM and an EC50 [4] of 48.7 µM. For the same compound, the EC50 [1] was 53.1 µM and the Activity [5] was “Non-toxic”.
In the case of `c1cc2c(cc1[C@H]1OC[C@H]3[C@@H]1CO[C@@H]3c1ccc3c(c1)OCO3)OCO2` [SESAMIN], the IC50 [7] is reported as 9.4 µM, the inhibition [8] is reported as “Dose-dependent effect” and the inhibition [9] is reported as “Dose-dependent effect”. For the same compound, the EC50 [2] was over 60 µM and the Activity [5] was “Non-toxic”.
In the case of `O=C(O)c1cc(/N=N/c2ccc(S(=O)(=O)Nc3ccccn3)cc2)ccc1O` [SULFASALAZINE], the IC50 [7] is reported as 0.9 µM.
